Converted amounts (≈) assume the structure as drawn. Where two headings read alike, the source gives them in different places.
What was measured:
[1] = tested on: C. albicans and C. neoformans; test: MIC/MFC, summary over all fungal strains; format: cell-based, Candida albicans, Cryptococcus neoformans
Protocol: (§1) In vitro antifungal assays. The MIC assays for C. albicans (K1, SC5314, Gu5, ATCC90028, R01, R02, R03 and R04 strains) and C. neoformans (H99, MYA737 and JEC21 strains) were conducted according to a previously described protocol. The cultured fungal cells were collected at 2.5 × 10^3 CFU/mL in RPMI 1640 medium to give the working suspension. Two- […]
(§2) plate to give 50 µL compound solution in each well. Then 50 µL of the cell suspension was added to each well. Wells containing cells in RPMI without any polymer or antifungal drug were used as drug-free controls, and wells containing RPMI medium only were used as cell-free controls. The plate was gently stirred for 10 seconds and then incubated at 30 °C. After C. albicans and C. neoformans cells were incubated for 24 h and 48 h, respectively, fungal cell growth was checked visually. The MIC values were identified as the lowest concentration […]
C. albicans . The MFC assay for Candida and Cryptococcus was conducted after the MIC test.
An aliquot of 3 µL premixed suspension from each well was plated on the yeast extract-peptone-dextrose (YPD) agar. The plates were incubated at 30 °C for 24 h and 48 h, respectively, for C. albicans cells and C. neoformans cells. Then the plate was inspected visually for colony formation. […]

ICR mice = test: In vivo acute toxicity, single IV injection
Protocol: In vivo acute toxicity. All animal procedures were performed in accordance with the
Guidelines for Care and Use of Laboratory Animals of the Shanghai Tenth People’s Hospital
(License number: SYXK( 沪)-2021-0012), and experiments were approved by the Animal
Ethics Committee of the Shanghai Tenth People’s Hospital, Tongji University School of
was performed on 6-weeks old female ICR mice (n = 10) using the previously reported
prepared in DMSO and further diluted into sterile saline to a final concentration of 0.3 mg/mL
and 3 mg/kg, respectively, and mice injected with saline were used as controls. After a single
injection, all survival mice were weighed daily for 14 days. The organs (kidney, liver, and
spleen) (n = 2) and blood of mice treated by PDAP 20 or saline (n = 8) were collected on the

C. albicans SC5314 = test: Biofilm-induced fungal keratitis model; format: in vivo, mouse (male BALB/c); conditions: 10 μL every 5 min for 1 h, then every 30 min for 7 h, versus saline, n = 10
Protocol: Medicine (Accreditation number of the laboratory: SHDSYY-2021-1729). The experiment […]
method. […] AmpB was
(2.5% DMSO in final solution).
The organs (kidney, liver, and
14th day for histological analysis and blood biochemistry analysis.
30 min during the next 7 h.
C. albicans biofilm formation on contact lenses. The contact lenses (Biomedic ®, Cooper […]
Then the discs were transferred to a […]
and incubated at rt with shaking at 100 rpm. After 6 hours of incubation, the suspension was […]
addition of 150 μL fresh RPMI medium into each well. […]
All mice were killed and the eyeballs of each mouse were collected immediately 30 min after the administration of the last eye drop. Ten eyeballs from each group were homogenized for quantitative analysis of fungal counts with the number of CFUs expressed as mean log (CFU per eye), and the remaining four eyeballs were collected for histological analysis. […]
After incubation for 24 h at 30 °C, the colonies were counted and the number of CFUs was […]
expressed as mean log 10 (CFU per eye). […]
Statistical Analysis. […] Significance between two groups was determined by two-tailed t-test. […] All results were expressed as mean values ± s.d. n = 3 for each in vitro statistical analysis. n = 8 or 10 for each in vivo statistical analysis. […]

C. albicans = test: MIC assay (in vitro antifungal assay); format: cell-based, Candida albicans; conditions: for MIC: Candida albicans
Protocol: as §1
as §2, with “Then” for “plate to give 50 µL compound solution in each well. Then”, “visually.” for “visually. The MIC values were identified as the lowest concentration”

For poly(DL‐diaminopropionic acid) [PDAP20], the “MIC against all strains of C. albicans and C. neoformans (range)” value [1] was 0.1 to 0.8 µg/mL, the “Survival after IV injection” value (ICR mice; single IV dose of 100 mg kg^−1, ICR mice, n = 10, 14 days) was “all mice survived” and the Body weight (ICR mice; single IV dose of 100 mg kg^−1, daily for 14 days, n = 10) was “normal body weight compared to the saline group”. For the same molecule, the “H&E histology of kidney, liver and spleen” value (ICR mice; single IV dose of 100 mg kg^−1, day 14, n = 2) was “no obvious toxicity on major organs”, the “Blood biochemistry (K+, Na+, ALT, AST, BUN, CREA)” value (ICR mice; single IV dose of 100 mg kg^−1, day 14, n = 8) was “did not cause significant changes in blood biochemical indicators” and the “Reduction of colonies, log CFU per eye” value (C. albicans SC5314; PDAP20 15 mg mL^−1 eye drops) was 1.2 log CFU per eye. The “MIC at high fungal cell concentration (TEM conditions)” value (C. albicans; 1.0 × 10^8 CFU mL^−1, fungal species not stated at the place) was 50 µg/mL, the “MIC at high fungal cell concentration (other mechanism experiments)” value (C. albicans; 3.0 × 10^6 CFU mL^−1, fungal species not stated at the place) was 12.5 µg/mL and the “Effect of increasing K+ on antifungal activity” value (C. albicans; K+ up to 20 × 10^−3 M, C. albicans K1) was “didn't affect”. For the same molecule, the “MIC C. albicans K1, standard MIC test in RPMI 1640” value (C. albicans; Na+ 103 mM, K+ 5.4 mM) was 0.8 µg/mL, the “MIC C. albicans K1, K+ ↑” value (C. albicans; Na+ 103 mM, K+ 10 mM) was 0.8 µg/mL and the “MIC C. albicans K1, K+ ↑” value (C. albicans; Na+ 103 mM, K+ 20 mM) was 0.8 µg/mL. The “MIC C. albicans K1, physiological salt concentration” value (C. albicans; Na+ 150 mM, K+ 5.4 mM) was 1.6 μg/mL, the “MIC C. albicans K1, Na+ ↑” value (C. albicans; Na+ 200 mM, K+ 5.4 mM) was 3.1 µg/mL and the “MIC C. albicans K1, Na+ ↑” value (C. albicans; Na+ 300 mM, K+ 5.4 mM) was 6.3 µg/mL. The “MIC C. albicans K1, Na+ ↑, K+ ↑” value (C. albicans; Na+ 300 mM, K+ 20 mM) was 6.3 µg/mL and the “MIC C. albicans K1 on increase of Na+ (range)” value (C. albicans; Na+ from 150 × 10^−3 to 300 × 10^−3 M) was 1.6 to 6.3 µg/mL.
With `C[C@@H]1[C@H](O)[C@@H](C)/C=C/C=C/C=C/C=C/C=C/C=C/C=C/[C@H](O[C@@H]2O[C@H](C)[C@@H](O)[C@H](N)[C@@H]2O)C[C@@H]2O[C@](O)(C[C@@H](O)C[C@@H](O)[C@H](O)CC[C@@H](O)C[C@@H](O)CC(=O)O[C@H]1C)C[C@H](O)[C@H]2C(=O)O` [AmpB, amphotericin B] the “MIC against all strains of C. albicans and C. neoformans (range)” value [1] was 1.2 to 3.1 µg/mL, the “Mice died within 48 h” value (ICR mice; single IV dose of 3 mg kg^−1, ICR mice, n = 10) was 90% and the “Reduction of colonies, log CFU per eye” value (C. albicans SC5314; AmpB 1 mg mL^−1 eye drops) was 1.8 log CFU per eye. The MIC (C. albicans; 24 h, read-out: MIC C. albicans R01) was 1.2 µg/mL (≈ 1.3 µM), the MIC (C. albicans; 24 h, read-out: MIC C. albicans R04) was 1.6 µg/mL (≈ 1.73 µM) and the MIC (C. albicans; ATCC90028, 24 h, read-out: MIC C. albicans ATCC90028) was 1.6 µg/mL (≈ 1.73 µM). The MIC (C. albicans; SC5314, 24 h, read-out: MIC C. albicans SC5314) was 1.6 µg/mL (≈ 1.73 µM).

— paper PMC9108603, “Microbial Metabolite Inspired β‐Peptide Polymers Displaying Potent and Selective Antifungal Activity” (Advanced Science, 2022)
